Data as given in patent US20240279233A1, “MACROCYCLIC TAK1 INHIBITORS” (Aqilion AB, priority 2021, published 2024).
Converted amounts (≈) assume the structure as drawn. Like-named read-outs stand apart in the source and are kept apart here.

Key:
[1] = biological target: human recombinant TAK1-TAB1 Kinase (TAK1 (1-303) and TAB1 (437-end)) (Homo sapiens (Human), UniProt O43318); assay: TAK1 biochemical ADP-Glo kinase assay; settings: MBP substrate
Method in brief: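 Inhibition of human recombinant TAK1-TAB1 kinase was measured with a Promega ADP-Glo luminescence assay in 384-well plates. Compounds in 5% DMSO were pre-incubated 10 min with 2 μl TAK1-TAB1 (7.5 ng/μl) in buffer of Tris pH 7.5, MgCl2, DTT and BSA. MBP substrate and ATP were then added for 1 hour at room temperature. ADP-Glo reagent and kinase detection substrate followed, luminescence was read on an Envision, and IC50 came from non-linear regression.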

[2] = Solubility assay in phosphate buffer
Protocol: The aqueous solubility of selected example compounds was determined as follows; 6 μL of DMSO stock solution of the selected example was added to 594 μL phosphate buffer (100 mM, pH 7.4). The resulting mixture was equilibrated over night (20-24 h, Alligator Shaker, room temperature). The mixture was then filtered (Millex LH 0.45 μm) and the concentration/solubility was determined by LC-UV quantification.

[3] = 10 μM ATP, read-out: TAK1 Mean IC50 (nM) @ 10 μM ATP
[4] = phosphate buffer, pH 7.4, aqueous buffer, kinetic from dmso stock, Solubility (μM), phosphate buffer 100 mM, pH 7.4, room temperature, 20-24 h, LC-UV
[5] = phosphate buffer 100 mM, pH 7.4, room temperature, 20-24 h, LC-UV
[6] = 1 mM ATP, read-out: TAK1 Mean IC50 (nM) @ 1 mM ATP

Sequence of human recombinant TAK1-TAB1 Kinase (TAK1 (1-303) and TAB1 (437-end)) (O43318 other isoform, or with tags, fused parts or gaps): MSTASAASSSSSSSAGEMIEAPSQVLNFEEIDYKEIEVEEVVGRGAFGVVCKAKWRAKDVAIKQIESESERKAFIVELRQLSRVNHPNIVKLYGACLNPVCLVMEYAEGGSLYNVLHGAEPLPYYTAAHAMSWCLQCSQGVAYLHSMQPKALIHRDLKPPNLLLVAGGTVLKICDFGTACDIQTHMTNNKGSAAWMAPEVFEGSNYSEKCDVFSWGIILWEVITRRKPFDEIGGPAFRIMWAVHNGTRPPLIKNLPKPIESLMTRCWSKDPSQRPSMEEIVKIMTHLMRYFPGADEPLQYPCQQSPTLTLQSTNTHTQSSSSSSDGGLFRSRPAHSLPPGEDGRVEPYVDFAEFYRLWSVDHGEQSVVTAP

SMILES | IC50 [1, 3] [nM] | solubility [2, 4] [µM] | solubility [2, 5] [µM] | IC50 [1, 6] [nM] | solubility ([2]; phosphate buffer, pH 7.4, aqueous buffer, kinetic from dmso stock) [µM]
CC(C)(C)OC(=O)N1CCN(C(=O)c2ccc3c(c2)nc2n3CCCCCNC(=O)c3cccc(c3)C(=O)N2)CC1 [Example 13, tert-butyl 4-(3,5-dioxo-1^1H-2,6-diaza-1(2,1)-benzo[d]imidazola-4(1,3)-benzenacycloundecaphane-1^5-carbonyl)piperazine-1-carboxylate] | 1 | 0.2 (≈ 0.112 µg/mL) | – | – | –
CC1CCCCNC(=O)c2cccc(c2)C(=O)/N=C2\Nc3cccc(C(=O)N4CC[C@H](F)C4)c3N21 (single isomer, unassigned) [Example 89] | 6 | 88 (≈ 42 µg/mL) | – | – | –
O=C1/N=C2\Nc3cccc(C(=O)N4CCN(C5COC5)CC4)c3N2CCCCCNC(=O)c2cccc1c2 [Example 19, (E)-1^7-(4-(oxetan-3-yl)piperazine-1-carbonyl)-1^2,1^3-dihydro-1^1H-2,6-diaza-1(2,1)-benzo[d]imidazola-4(1,3)-benzenacycloundecaphane-3,5-dione] | 7 | 8.5 (≈ 4.39 µg/mL) | – | – | –
CC(C)N(C)C(=O)c1cccc2c1N1/C(=N/C(=O)c3cccc(c3)C(=O)NCCCCC1C)N2 (stereo not drawn) [Example 47, (E)-N-isopropyl-N,11-dimethyl-3,5-dioxo-1^2,1^3-dihydro-1^1H-2,6-diaza-1(2,1)-benzo[d]imidazola-4(1,3)-benzenacycloundecaphane-1^7-carboxamide] | 1 | 42 (≈ 19.4 µg/mL) | – | – | –
C[C@@H]1CCCCNC(=O)c2cccc(c2)C(=O)Nc2nc3cc(C(C)(C)O)cc(C(=O)N(C)C)c3n21 [Example 69, (R,E)-1^5-(2-hydroxypropan-2-yl)-N,N,11-trimethyl-3,5-dioxo-1^2,1^3-dihydro-1^1H-2,6-diaza-1(2,1)-benzo[d]imidazola-4(1,3)-benzenacycloundecaphane-1^7-carboxamide] | 2 | 93 (≈ 45.7 µg/mL) | – | – | –
C[C@@H]1CCCCNC(=O)c2cccc(c2)C(=O)Nc2nc3ccc(Cl)c(C(=O)N(C)C)c3n21 [Example 56, (R,E)-1^6-chloro-N,N,11-trimethyl-3,5-dioxo-1^2,1^3-dihydro-1^1H-2,6-diaza-1(2,1)-benzo[d]imidazola-4(1,3)-benzenacycloundecaphane-1^7-carboxamide] | 16 | – | 7.1 (≈ 3.32 µg/mL) | – | –
CC1CCCCNC(=O)c2cccc(c2)C(=O)Nc2nc3cccc(C(=O)N4CCN(C)CC4)c3n21 (stereo not drawn) [Example 8, 11-methyl-1^7-(4-methylpiperazine-1-carbonyl)-1^1H-2,6-diaza-1(2,1)-benzo[d]imidazola-4(1,3)-benzenacycloundecaphane-3,5-dione] | 5 | 92.7 (≈ 45.3 µg/mL) | – | – | –
CC1CCCCNC(=O)c2cccc(c2)C(=O)/N=C2\Nc3cccc(C(=O)N4CCC4)c3N21 (stereo not drawn) [Example 43, (E)-1^7-(azetidine-1-carbonyl)-11-methyl-1^2,1^3-dihydro-1^1H-2,6-diaza-1(2,1)-benzo[d]imidazola-4(1,3)-benzenacycloundecaphane-3,5-dione] | 4 | 16 (≈ 7.13 µg/mL) | – | – | –
CN1CCN(C(=O)c2ccc3c(c2)nc2n3CCCCCNC(=O)c3cccc(c3)C(=O)N2)CC1 [Example 11, 1^5-(4-methylpiperazine-1-carbonyl)-1^1H-2,6-diaza-1(2,1)-benzo[d]imidazola-4(1,3)-benzenacycloundecaphane-3,5-dione] | 1 | 4.8 (≈ 2.28 µg/mL) | – | – | –
O=C1/N=C2\Nc3ccc(C(=O)N4CCNCC4)cc3N2CCCCCNC(=O)c2cccc1c2 [Example 100, (E)-1^6-(piperazine-1-carbonyl)-1^2,1^3-dihydro-1^1H-2,6-diaza-1(2,1)-benzo[d]imidazola-4(1,3)-benzenacycloundecaphane-3,5-dione] | 2 | 83.1 (≈ 38.3 µg/mL) | – | – | –
CN1CCN(C(=O)c2ccc3nc4n(c3c2)CCCCCNC(=O)c2cccc(c2)C(=O)N4)CC1 [Example 97, (E)-1^6-(4-methylpiperazine-1-carbonyl)-1^2,1^3-dihydro-1^1H-2,6-diaza-1(2,1)-benzo[d]imidazola-4(1,3)-benzenacycloundecaphane-3,5-dione] | 4 | 5 (≈ 2.37 µg/mL) | – | – | –
[2H]C([2H])([2H])N(C(=O)c1cccc2c1N1/C(=N/C(=O)c3cccc(c3)C(=O)NCCCC[C@H]1C)N2)C([2H])([2H])[2H] [Example 64, (R,E)-11-methyl-N,N-bis(methyl-d3)-3,5-dioxo-1^2,1^3-dihydro-1^1H-2,6-diaza-1(2,1)-benzo[d]imidazola-4(1,3)-benzenacycloundecaphane-1^7-carboxamide] | 3 | 44 (≈ 19.3 µg/mL) | – | – | –
C[C@@H]1CCCCNC(=O)c2cccc(c2)C(=O)Nc2nc3ccc(Cl)c(C(=O)N(C)C)c3n21 [Example 55, (R,E)-1^6-chloro-N,N,11-trimethyl-3,5-dioxo-1^2,1^3-dihydro-1^1H-2,6-diaza-1(2,1)-benzo[d]imidazola-4(1,3)-benzenacycloundecaphane-1^7-carboxamide] | 6 | – | 74.0 (≈ 34.6 µg/mL) | – | –
C[C@H]1CCCCNC(=O)c2cccc(c2)C(=O)Nc2nc3ccc(Cl)c(C(=O)N(C)C)c3n21 (single isomer, unassigned) [Example 54] | 8 | 9 (≈ 4.21 µg/mL) | – | 25 | –
C[C@H]1CCCCNC(=O)c2cccc(c2)C(=O)/N=C2\Nc3cccc(-c4cn(C)nn4)c3N21 [Example 87, (S,E)-11-methyl-1^7-(1-methyl-1H-1,2,3-triazol-4-yl)-1^2,1^3-dihydro-1^1H-2,6-diaza-1(2,1)-benzo[d]imidazola-4(1,3)-benzenacycloundecaphane-3,5-dione] | 5 | 4.7 (≈ 2.08 µg/mL) | – | 9 | –
CC1CCCCNC(=O)c2cccc(c2)C(=O)Nc2nc3cccc(C(=O)N4CCNCC4)c3n21 (stereo not drawn) [Example 15, 11-methyl-1^7-(piperazine-1-carbonyl)-1^1H-2,6-diaza-1(2,1)-benzo[d]imidazola-4(1,3)-benzenacycloundecaphane-3,5-dione] | 5 | 90.1 (≈ 42.8 µg/mL) | – | – | –
CC1CCCCNC(=O)c2cccc(c2)C(=O)/N=C2\Nc3cccc(C(=O)N4CC5(CCO5)C4)c3N21 (single isomer, unassigned) [Example 79, (E)-11-methyl-1^7-(1-oxa-6-azaspiro[3.3]heptane-6-carbonyl)-1^2,1^3-dihydro-1^1H-2,6-diaza-1(2,1)-benzo[d]imidazola-4(1,3)-benzenacycloundecaphane-3,5-dione] | 6 | – | – | 7 | 90 (≈ 43.9 µg/mL)
CC1CCCCNC(=O)c2cccc(c2)C(=O)/N=C2\Nc3cccc(C(=O)N4CCOC[C@@H]4C)c3N21 (single isomer, unassigned) [Example 78] | 8 | 86 (≈ 42.1 µg/mL) | – | – | –
C[C@@H]1CCCCNC(=O)c2cccc(c2)C(=O)/N=C2\Nc3cccc(C(=O)N4C[C@H]5C[C@@H]4CN5C)c3N21 [Example 29, (R, E)-11-methyl-1^7-((1R,4R)-5-methyl-2,5-diazabicyclo[2.2.1]heptane-2-carbonyl)-1^2,1^3-dihydro-1^1H-2,6-diaza-1(2,1)-benzo[d]imidazola-4(1,3)-benzenacycloundecaphane-3,5-dione] | 6 | 95 (≈ 47.6 µg/mL) | – | – | –
CC1CCCCNC(=O)c2cccc(c2)C(=O)/N=C2\Nc3cccc(-c4ncnn4C(F)F)c3N21 (single isomer, unassigned) [Example 140, (E)-1^7-(1-(difluoromethyl)-1H-1,2,4-triazol-5-yl)-11-methyl-1^2,1^3-dihydro-1^1H-2,6-diaza-1(2,1)-benzo[d]imidazola-4(1,3)-benzenacycloundecaphane-3,5-dione] | – | – | – | 6 | –
